# Results published in PubChem BioAssay AID1919017 (Molecular Pharmacology Branch, DTP, NCI, 2023).
# Test system: SW1271 complex spheroids with HUVEC/MSC, growth, % test/control
# Experiment: Anticancer human tumor SW1271 cell line growth inhibition [AhR];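 further: spheroids exposed to agents for 7 days before readout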
# Details: for IC50: curve of first compound; for viability, T/C: stronger effect = lower value
# Summary of the method: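 Spheroids combined tumor cells with HUVEC endothelial cells and human MSCs as stroma. AhR antagonists were paired with standard or investigational drugs, each dosed in half-log steps down from near clinical Cmax, or from 10 microM where Cmax was unknown.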
# [1] = second compound 0.1 µM, first compound 0.0316 µM
# [2] = second compound 0.1 µM, first compound 0.1 µM
# [3] = second compound 0.1 µM, first compound 0.316 µM
# [4] = second compound 0.1 µM, first compound 1 µM
# [5] = second compound 0.1 µM, first compound 3.16 µM
# [6] = second compound 0.1 µM, first compound 10 µM
# [7] = second compound 0.316 µM, first compound 0.0316 µM
# [8] = second compound 0.316 µM, first compound 0.1 µM
# [9] = second compound 0.316 µM, first compound 0.316 µM
# [10] = second compound 0.316 µM, first compound 1 µM
# [11] = second compound 0.316 µM, first compound 3.16 µM
# [12] = second compound 0.316 µM, first compound 10 µM
# [13] = second compound 1 µM, first compound 0.0316 µM
# [14] = second compound 1 µM, first compound 0.1 µM
# [15] = second compound 1 µM, first compound 0.316 µM
# [16] = second compound 1 µM, first compound 1 µM
# [17] = second compound 1 µM, first compound 3.16 µM
# [18] = second compound 1 µM, first compound 10 µM
# [19] = second compound 3.16 µM, first compound 0.0316 µM
# [20] = second compound 3.16 µM, first compound 0.1 µM
# [21] = second compound 3.16 µM, first compound 0.316 µM
# [22] = second compound 3.16 µM, first compound 1 µM
# [23] = second compound 3.16 µM, first compound 3.16 µM
# [24] = second compound 3.16 µM, first compound 10 µM
# [25] = second compound 10 µM, first compound 0.0316 µM
# [26] = second compound 10 µM, first compound 0.1 µM
# [27] = second compound 10 µM, first compound 0.316 µM
# [28] = second compound 10 µM, first compound 1 µM
# [29] = second compound 10 µM, first compound 3.16 µM
# [30] = second compound 10 µM, first compound 10 µM
SMILES,IC50 (second compound 0.1 µM),IC50 (second compound 0.316 µM),IC50 (second compound 1 µM),IC50 (second compound 3.16 µM),IC50 (second compound 10 µM),"viability, T/C [1]","viability, T/C [2]","viability, T/C [3]","viability, T/C [4]","viability, T/C [5]","viability, T/C [6]","viability, T/C [7]","viability, T/C [8]","viability, T/C [9]","viability, T/C [13]","viability, T/C [14]","viability, T/C [19]","viability, T/C [20]","viability, T/C [25]","viability, T/C [26]",also measured
CC1(C)CCC(CN2CCN(c3ccc(C(=O)NS(=O)(=O)c4ccc(NCC5CCOCC5)c([N+](=O)[O-])c4)c(Oc4cnc5[nH]ccc5c4)c3)CC2)=C(c2ccc(Cl)cc2)C1 + Cc1cncc(-c2nc(NCCc3c[nH]c4ccccc34)c3ncn(C(C)C)c3n2)c1,> 10 µM,> 10 µM,> 10 µM,> 10 µM,< 0.0316 µM,101%,92.7%,101%,116%,131%,95.7%,95%,93.3%,102%,95.5%,79.8%,120%,98.5%,36.9%,46%,"viability, T/C [10]: 88.4%; viability, T/C [11]: 101%; viability, T/C [12]: 125%; viability, T/C [15]: 104%; viability, T/C [16]: 90.5%; viability, T/C [17]: 111%; viability, T/C [18]: 102%; viability, T/C [21]: 102%; viability, T/C [22]: 94.7%; viability, T/C [23]: 115%; viability, T/C [24]: 110%; viability, T/C [27]: 49.5%; viability, T/C [28]: 33.6%; viability, T/C [29]: 48.9%; viability, T/C [30]: 44.9%"
Cn1ncnc1C1c2n[nH]c(=O)c3cc(F)cc(c23)NC1c1ccc(F)cc1 (stereo not given) + Cc1cncc(-c2nc(NCCc3c[nH]c4ccccc34)c3ncn(C(C)C)c3n2)c1,> 0.1 µM,> 0.1 µM,> 0.1 µM,> 0.1 µM,> 0.1 µM,110%,107%,,,,,77.4%,91%,,94.7%,83.3%,98.6%,94.7%,61.3%,40.7%,"viability, T/C (second compound 0.1 µM, first compound 0.000316 µM): 111%; viability, T/C (second compound 0.1 µM, first compound 0.001 µM): 103%; viability, T/C (second compound 0.1 µM, first compound 0.00316 µM): 94.4%; viability, T/C (second compound 0.1 µM, first compound 0.01 µM): 119%; viability, T/C (second compound 0.316 µM, first compound 0.000316 µM): 96.2%; viability, T/C (second compound 0.316 µM, first compound 0.001 µM): 90.7%; viability, T/C (second compound 0.316 µM, first compound 0.00316 µM): 88.6%; viability, T/C (second compound 0.316 µM, first compound 0.01 µM): 98.2%; viability, T/C (second compound 1 µM, first compound 0.000316 µM): 91.8%; viability, T/C (second compound 1 µM, first compound 0.001 µM): 103%; viability, T/C (second compound 1 µM, first compound 0.00316 µM): 92.4%; viability, T/C (second compound 1 µM, first compound 0.01 µM): 95.8%; viability, T/C (second compound 3.16 µM, first compound 0.000316 µM): 103%; viability, T/C (second compound 3.16 µM, first compound 0.001 µM): 105%; viability, T/C (second compound 3.16 µM, first compound 0.00316 µM): 88.2%; viability, T/C (second compound 3.16 µM, first compound 0.01 µM): 92%; viability, T/C (second compound 10 µM, first compound 0.000316 µM): 44.9%; viability, T/C (second compound 10 µM, first compound 0.001 µM): 43.8%; viability, T/C (second compound 10 µM, first compound 0.00316 µM): 86.5%; viability, T/C (second compound 10 µM, first compound 0.01 µM): 53.5%"
NS(=O)(=O)OCC1CC(n2ccc3c(NC4CCc5ccccc54)ncnc32)CC1O (stereo not given) + Cc1cncc(-c2nc(NCCc3c[nH]c4ccccc34)c3ncn(C(C)C)c3n2)c1,> 10 µM,> 10 µM,> 10 µM,> 10 µM,0.512 µM,129%,140%,145%,86%,76.5%,71.8%,131%,177%,136%,143%,166%,185%,168%,94.1%,96.3%,"viability, T/C [10]: 100%; viability, T/C [11]: 76.7%; viability, T/C [12]: 81%; viability, T/C [15]: 154%; viability, T/C [16]: 76.3%; viability, T/C [17]: 75%; viability, T/C [18]: 79%; viability, T/C [21]: 158%; viability, T/C [22]: 71.2%; viability, T/C [23]: 63.3%; viability, T/C [24]: 66.1%; viability, T/C [27]: 54.7%; viability, T/C [28]: 44.5%; viability, T/C [29]: 44.4%; viability, T/C [30]: 41.3%"
